{"source": "paper PMC8540821", "about": "“Estimation of the Difference in Colistin Plasma Levels in Critically Ill Patients with Favorable or Unfavorable Clinical Outcomes” (Pharmaceutics, 2021)", "key": {"E. coli": {"test_system": "E. coli", "assay": "Susceptibility of clinical isolates (VITEK 2; MIC by broth dilution on microplate)", "format": "cell-based, Escherichia coli", "conditions": "n = 1, favorable outcome", "text": "(§1) The bacterial isolates were recovered in MacConkey agar (Oxoid-Thermo Scientific®, Hampshire, UK) and sent to the Bacterial Molecular Genetics Laboratory in AMIES transport media (COPAN). […] The MICs of meropenem, amikacin, and colistin were established by the broth dilution method on a microplate. E. coli ATCC® 25922^TM and P. aeruginosa ATCC® 27853^TM strains was used as a susceptibility control (American Type Culture Collection). Finally, the carbapenemase genes blaIMP, blaOXA-48, blaVIM, blaGES, blaKPC, and blaNDM were assessed by multiplex PCR [45]."}, "C. freundii": {"test_system": "C. freundii", "assay": "Susceptibility of clinical isolates (VITEK 2; MIC by broth dilution on microplate)", "format": "cell-based", "conditions": "n = 1, unfavorable outcome", "text": "as §1"}, "A. baumannii": {"test_system": "A. baumannii", "assay": "Susceptibility of clinical isolates (VITEK 2; MIC by broth dilution on microplate)", "format": "cell-based, Acinetobacter baumannii", "conditions": "for MIC: Acinetobacter baumannii, broth dilution, one isolate", "text": "as §1"}, "K. pneumoniae": {"test_system": "K. pneumoniae", "assay": "Susceptibility of clinical isolates (VITEK 2; MIC by broth dilution on microplate)", "format": "cell-based, Klebsiella pneumoniae", "conditions": "for MIC: Klebsiella pneumoniae, broth dilution, read-out: highest MIC", "text": "as §1"}, "P. putida": {"test_system": "P. putida", "assay": "Susceptibility of clinical isolates (VITEK 2; MIC by broth dilution on microplate)", "format": "cell-based, Pseudomonas putida", "text": "as §1"}, "P. aeruginosa": {"test_system": "P. aeruginosa", "assay": "Susceptibility of clinical isolates (VITEK 2; MIC by broth dilution on microplate)", "format": "cell-based, Pseudomonas aeruginosa", "conditions": "for MIC: Pseudomonas aeruginosa, broth dilution", "text": "as §1"}, "E. cloacae": {"test_system": "E. cloacae", "assay": "Susceptibility of clinical isolates (VITEK 2; MIC by broth dilution on microplate)", "format": "cell-based, Enterobacter cloacae", "text": "as §1"}, "[1]": {"conditions": "in vivo; cited from earlier work", "text": "Colistin has been clinically available since the 1950s, but it soon fell into disuse, mainly due to its nephrotoxic potential. Alongside its nephrotoxicity, which ranges between 0 and 58% in different studies, some evidence has found the incidence of peripheral neuropathy may be up to 50% with its use, as the main manifestation of neurotoxicity. The lack of other available options has increased the use of colistin in MDR infections, even with its safety profile. The pharmacokinetics of colistin are complex. Colistin is available as a sulfate and as sodium colis ..."}, "[2]": {"conditions": "isolates from patients with favorable outcome n = 10"}, "[3]": {"conditions": "isolates from patients with unfavorable outcome n = 14"}}, "note": "Where two headings read alike, the source gives them in different places.", "data": [{"compound": "CN(C)c1cc(NC(=O)CNC(C)(C)C)c(O)c2c1C[C@H]1C[C@H]3[C@H](N(C)C)C(O)=C(C(N)=O)C(=O)[C@@]3(O)C(O)=C1C2=O", "note": "[Glycylcyclines, tigecycline]", "values": [{"measurement": "isolates I (intermediate), n (%)", "setting": "E. coli", "value": "0 (0) n (%)"}, {"measurement": "isolates R (resistant), n (%)", "setting": "E. coli", "value": "0 (0) n (%)"}, {"measurement": "isolates S (susceptible), n (%)", "setting": "E. coli", "value": "1 (100) n (%)"}, {"measurement": "isolates I (intermediate), n (%)", "setting": "C. freundii", "value": "1 (100) n (%)"}, {"measurement": "isolates R (resistant), n (%)", "setting": "C. freundii", "value": "0 (0) n (%)"}, {"measurement": "isolates S (susceptible), n (%)", "setting": "C. freundii", "value": "0 (0) n (%)"}, {"measurement": "isolates I (intermediate), n (%)", "setting": "A. baumannii; n = 1, favorable outcome", "value": "0 (0) n (%)"}, {"measurement": "isolates R (resistant), n (%)", "setting": "A. baumannii; n = 1, favorable outcome", "value": "0 (0) n (%)"}, {"measurement": "isolates S (susceptible), n (%)", "setting": "A. baumannii; n = 1, favorable outcome", "value": "1 (100) n (%)"}, {"measurement": "isolates I (intermediate), n (%)", "setting": "K. pneumoniae; favorable outcome n = 3", "value": "0 (0) n (%)"}, {"measurement": "isolates R (resistant), n (%)", "setting": "K. pneumoniae; favorable outcome n = 3", "value": "0 (0) n (%)"}, {"measurement": "isolates S (susceptible), n (%)", "setting": "K. pneumoniae; favorable outcome n = 3", "value": "1 (33.3) n (%)"}, {"measurement": "isolates I (intermediate), n (%)", "setting": "K. pneumoniae; unfavorable outcome n = 2", "value": "0 (0) n (%)"}, {"measurement": "isolates R (resistant), n (%)", "setting": "K. pneumoniae; unfavorable outcome n = 2", "value": "0 (0) n (%)"}, {"measurement": "isolates S (susceptible), n (%)", "setting": "K. pneumoniae; unfavorable outcome n = 2", "value": "2 (100) n (%)"}, {"measurement": "isolates I (intermediate), n (%)", "setting": "P. putida; favorable outcome n = 1", "value": "1 (100) n (%)"}, {"measurement": "isolates R (resistant), n (%)", "setting": "P. putida; favorable outcome n = 1", "value": "0 (0) n (%)"}, {"measurement": "isolates S (susceptible), n (%)", "setting": "P. putida; favorable outcome n = 1", "value": "0 (0) n (%)"}, {"measurement": "isolates I (intermediate), n (%)", "setting": "P. putida; unfavorable outcome n = 1", "value": "0 (0) n (%)"}, {"measurement": "isolates R (resistant), n (%)", "setting": "P. putida; unfavorable outcome n = 1", "value": "0 (0) n (%)"}, {"measurement": "isolates S (susceptible), n (%)", "setting": "P. putida; unfavorable outcome n = 1", "value": "1 (100) n (%)"}, {"measurement": "isolates I (intermediate), n (%)", "setting": "P. aeruginosa; [2]", "value": "0 (0) n (%)"}, {"measurement": "isolates R (resistant), n (%)", "setting": "P. aeruginosa; [2]", "value": "9 (90) n (%)"}, {"measurement": "isolates S (susceptible), n (%)", "setting": "P. aeruginosa; [2]", "value": "0 (0) n (%)"}, {"measurement": "isolates I (intermediate), n (%)", "setting": "P. aeruginosa; [3]", "value": "0 (0) n (%)"}, {"measurement": "isolates R (resistant), n (%)", "setting": "P. aeruginosa; [3]", "value": "11 (78.6) n (%)"}, {"measurement": "isolates S (susceptible), n (%)", "setting": "P. aeruginosa; [3]", "value": "0 (0) n (%)"}, {"measurement": "isolates I (intermediate), n (%)", "setting": "E. cloacae; n = 1, favorable outcome", "value": "0 (0) n (%)"}, {"measurement": "isolates R (resistant), n (%)", "setting": "E. cloacae; n = 1, favorable outcome", "value": "0 (0) n (%)"}, {"measurement": "isolates S (susceptible), n (%)", "setting": "E. cloacae; n = 1, favorable outcome", "value": "1 (100) n (%)"}]}, {"compound": "NCC[C@H](O)C(=O)N[C@@H]1C[C@H](N)[C@@H](O[C@H]2O[C@H](CN)[C@@H](O)[C@H](O)[C@H]2O)[C@H](O)[C@H]1O[C@H]1O[C@H](CO)[C@@H](O)[C@H](N)[C@H]1O", "note": "[amikacin]", "values": [{"measurement": "MIC", "setting": "A. baumannii", "value": 64, "unit": "mg/L"}, {"measurement": "MIC", "setting": "K. pneumoniae", "value": 64, "unit": "mg/L"}, {"measurement": "MIC", "setting": "P. aeruginosa; established in 23.3% of isolates, read-out: highest MIC", "value": 128, "unit": "mg/L"}]}, {"compound": "C[C@@H](O)[C@H]1C(=O)N2C(C(=O)O)=C(S[C@@H]3CN[C@H](C(=O)N(C)C)C3)[C@H](C)[C@H]12", "note": "[meropenem]", "values": [{"measurement": "MIC", "setting": "A. baumannii", "value": 64, "unit": "mg/L"}, {"measurement": "MIC", "setting": "K. pneumoniae", "value": 32, "unit": "mg/L"}, {"measurement": "MIC", "setting": "P. putida; Pseudomonas putida, broth dilution, one isolate", "value": "> 1020", "unit": "mg/L"}, {"measurement": "MIC", "setting": "P. aeruginosa; found in 56.7% of isolates, 88.2% of which harbored KPC and VIM, read-out: MIC", "value": "> 1020", "unit": "mg/L"}, {"measurement": "MIC", "setting": "E. cloacae; Enterobacter cloacae, broth dilution, read-out: highest MIC", "value": 32, "unit": "mg/L"}]}, {"compound": "colistimethate sodium [CMS]", "values": [{"measurement": "half-life", "setting": "[1]", "value": 2.07, "unit": "h"}]}]}
